# From patent US9492453B2 (priority 2007, dated 2016)
# pIC50: −log10 of the molar value. Where two headings read alike, the source gives them in different places.
# Legend:
# PKB (Akt) = conditions: read-out: Cellular PKB Mean IC50; MDA-MB-468 cells, phosphorylation of Serine-9 of GSK-3β, 2 hours incubation
# AKT1 (PKBα) = AKT1 (PKBα) (Homo sapiens (Human), UniProt P31749); conditions: read-out: In vitro PKBα Mean IC50, AKT1/PKBα active enzyme, Caliper LabChip LC3000
# AKT1 (PKBα), sequence (P31749 whole entry): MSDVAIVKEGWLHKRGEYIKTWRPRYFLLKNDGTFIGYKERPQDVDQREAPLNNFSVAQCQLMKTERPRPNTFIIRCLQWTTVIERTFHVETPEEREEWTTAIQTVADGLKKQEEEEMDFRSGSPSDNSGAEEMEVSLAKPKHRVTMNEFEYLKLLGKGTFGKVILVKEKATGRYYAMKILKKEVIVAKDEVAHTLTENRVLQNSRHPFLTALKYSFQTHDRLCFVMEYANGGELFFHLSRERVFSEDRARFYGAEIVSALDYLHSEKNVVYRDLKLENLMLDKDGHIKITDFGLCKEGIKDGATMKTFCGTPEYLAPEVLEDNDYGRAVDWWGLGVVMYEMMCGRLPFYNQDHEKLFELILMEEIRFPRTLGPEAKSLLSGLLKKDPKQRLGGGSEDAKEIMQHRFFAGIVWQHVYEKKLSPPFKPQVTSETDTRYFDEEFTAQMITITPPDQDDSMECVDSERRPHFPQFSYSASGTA
SMILES,pIC50 (PKB (Akt)),pIC50 (AKT1 (PKBα)),pIC50 (AKT1 (PKBα); tested once only)
"NCC(NC(=O)C1(N)CCN(c2ncnc3[nH]ccc23)CC1)c1ccc(Cl)cc1 (stereo not drawn) [Example 5, 4-amino-N-(2-amino-1-(4-chlorophenyl)ethyl)-1-(7H-pyrrolo[2,3-d]pyrimidin-4-yl)piperidine-4-carboxamide]",6.57,8.01,
"NCC1(C(=O)NC(CCO)c2ccc(Cl)cc2)CCN(c2ncnc3[nH]ccc23)CC1 (stereo not drawn) [Example 12, 4-(aminomethyl)-N-(1-(4-chlorophenyl)-3-hydroxypropyl)-1-(7H-pyrrolo[2,3-d]pyrimidin-4-yl)piperidine-4-carboxamide]",7.00,,
"NCCC(NC(=O)C1(N)CCN(c2ncnc3[nH]ccc23)CC1)c1ccc(Cl)cc1 (stereo not drawn) [Example 14, 4-amino-N-(3-amino-1-(4-chlorophenyl)propyl)-1-(7H-pyrrolo[2,3-d]pyrimidin-4-yl)piperidine-4-carboxamide]",6.03,8.52,
"NC1(C(=O)N[C@H](CCO)c2ccc(Cl)cc2)CCN(c2ncnc3[nH]ccc23)CC1 [Example 15, (R)-4-amino-N-(1-(4-chlorophenyl)-3-hydroxypropyl)-1-(7H-pyrrolo[2,3-d]pyrimidin-4-yl)piperidine-4-carboxamide]",< 5.51,,
"C[C@@H](NC(=O)C1(CN)CCN(c2ncnc3[nH]ccc23)CC1)c1ccc(Cl)cc1 [Example 17, (R)-4-(aminomethyl)-N-(1-(4-chlorophenyl)ethyl)-1-(7H-pyrrolo[2,3-d]pyrimidin-4-yl)piperidine-4-carboxamide]",6.62,7.92,
"NC1(C(=O)N[C@@H](CCO)c2ccc(Cl)cc2)CCN(c2ncnc3[nH]cnc23)CC1 [Example 22, (S)-4-amino-N-(1-(4-chlorophenyl)-3-hydroxypropyl)-1-(9H-purin-6-yl)piperidine-4-carboxamide]",6.77,8.12,
"NCC1(C(=O)N[C@@H](CCO)c2ccc(Cl)cc2)CCN(c2ncnc3[nH]ccc23)CC1 [Example 23, (S)-4-(aminomethyl)-N-(1-(4-chlorophenyl)-3-hydroxypropyl)-1-(7H-pyrrolo[2,3-d]pyrimidin-4-yl)piperidine-4-carboxamide]",7.10,8.89,
"NC1(C(=O)N[C@@H](CCO)c2ccc(Br)cc2)CCN(c2ncnc3[nH]ccc23)CC1 [Example 24, (S)-4-amino-N-(1-(4-bromophenyl)-3-hydroxypropyl)-1-(7H-pyrrolo[2,3-d]pyrimidin-4-yl)piperidine-4-carboxamide]",7.22,8.66,
"CCN(CC)CC[C@H](NC(=O)C1(N)CCN(c2ncnc3[nH]ccc23)CC1)c1ccc(Cl)cc1 [Example 26, (S)-4-amino-N-(1-(4-chlorophenyl)-3-(diethylamino)propyl)-1-(7H-pyrrolo[2,3-d]pyrimidin-4-yl)piperidine-4-carboxamide]",7.05,8.25,
"CNCCC(NC(=O)C1(N)CCN(c2ncnc3[nH]ccc23)CC1)c1ccc(Cl)cc1 (stereo not drawn) [Example 28, 4-amino-N-(1-(4-chlorophenyl)-3-(methylamino)propyl)-1-(7H-pyrrolo[2,3-d]pyrimidin-4-yl)piperidine-4-carboxamide]",6.33,8.35,
"C[C@H](NC(=O)C1(N)CCN(c2ncnc3[nH]nc(Br)c23)CC1)c1ccc(Cl)cc1 [Example 31, 4-amino-1-(3-bromo-1H-pyrazolo[3,4-d]pyrimidin-4-yl)-N-[(1S)-1-(4-chlorophenyl)ethyl]piperidine-4-carboxamide]",5.96,7.62,
"C[C@H](NC(=O)C1(N)CCN(c2ncnc3[nH]cc(Cl)c23)CC1)c1ccc(Cl)cc1 [Example 32, 4-amino-N-[(1S)-1-(4-chlorophenyl)ethyl]-1-(5-chloro-7H-pyrrolo[2,3-d]pyrimidin-4-yl)piperidine-4-carboxamide]",6.38,7.92,
"Cc1c[nH]c2ncnc(N3CCC(N)(C(=O)N[C@@H](C)c4ccc(Cl)cc4)CC3)c12 [Example 37, 4-amino-N-[(1S)-1-(4-chlorophenyl)ethyl]-1-(5-methyl-7H-pyrrolo[2,3-d]pyrimidin-4-yl)piperidine-4-carboxamide]",6.26,7.72,
"CC(C)(O)C[C@H](NC(=O)C1(N)CCN(c2ncnc3[nH]ccc23)CC1)c1ccc(Cl)cc1 [Example 38, 4-amino-N-[(1S)-1-(4-chlorophenyl)-3-hydroxy-3-methylbutyl]-1-(7H-pyrrolo[2,3-d]pyrimidin-4-yl)piperidine-4-carboxamide]",6.44,8.27,
"C[C@H](NC(=O)C1(N)CCN(c2ncnc3[nH]ccc23)CC1)c1ccc(C#N)cc1 [Example 39, 4-amino-N-[(1S)-1-(4-cyanophenyl)ethyl]-1-(7H-pyrrolo[2,3-d]pyrimidin-4-yl)piperidine-4-carboxamide]",5.72,,
"C[C@@H](NC(=O)C1(N)CCN(c2ncnc3[nH]ccc23)CC1)c1ccc(Br)cc1 [Example 42, 4-amino-N-[(1R)-1-(4-bromophenyl)ethyl]-1-(7H-pyrrolo[2,3-d]pyrimidin-4-yl)piperidine-4-carboxamide]",5.37,7.49,
"CN1CCN(CC[C@H](NC(=O)C2(N)CCN(c3ncnc4[nH]ccc34)CC2)c2ccc(Cl)cc2)CC1 [Example 50, 4-amino-N-[(1S)-1-(4-chlorophenyl)-3-(4-methylpiperazin-1-yl)propyl]-1-(7H-pyrrolo[2,3-d]pyrimidin-4-yl)piperidine-4-carboxamide]",6.72,8.37,

# Further lines, results first:
pIC50 (PKB (Akt)),pIC50 (AKT1 (PKBα)),pIC50 (AKT1 (PKBα); tested once only),SMILES
7.70,8.92,,"C[C@H](NC(=O)C1(CN)CCN(c2ncnc3[nH]ccc23)CC1)c1ccc(Cl)cc1 [Example 6, (S)-4-(aminomethyl)-N-(1-(4-chlorophenyl)ethyl)-1-(7H-pyrrolo[2,3-d]pyrimidin-4-yl)piperidine-4-carboxamide]"
6.60,8.38,,"CC(=O)NCCC(NC(=O)C1(N)CCN(c2ncnc3[nH]ccc23)CC1)c1ccc(Cl)cc1 (stereo not drawn) [Example 10, N-(3-acetamido-1-(4-chlorophenyl)propyl)-4-amino-1-(7H-pyrrolo[2,3-d]pyrimidin-4-yl)piperidine-4-carboxamide]"
5.85,7.80,,"N#Cc1ccc([C@H](CCO)NC(=O)C2(N)CCN(c3ncnc4[nH]ccc34)CC2)cc1 [Example 18, (S)-4-amino-N-(1-(4-cyanophenyl)-3-hydroxypropyl)-1-(7H-pyrrolo[2,3-d]pyrimidin-4-yl)piperidine-4-carboxamide]"
6.59,,,"NC1(C(=O)N[C@@H](CCO)c2ccc(Cl)cc2)CCN(c2ncnc3[nH]cc(Br)c23)CC1 [Example 19, (S)-4-amino-1-(5-bromo-7H-pyrrolo[2,3-d]pyrimidin-4-yl)-N-(1-(4-chlorophenyl)-3-hydroxypropyl)piperidine-4-carboxamide]"
6.01,,7.70,"NC1(C(=O)N[C@@H](CCO)c2ccc(Cl)cc2)CCN(c2ncnc3[nH]ncc23)CC1 [Example 20, (S)-4-amino-N-(1-(4-chlorophenyl)-3-hydroxypropyl)-1-(1H-pyrazolo[3,4-d]pyrimidin-4-yl)piperidine-4-carboxamide]"
< 5.51,,7.23,"NC1(C(=O)N[C@@H](CCO)c2ccccc2)CCN(c2ncnc3[nH]ccc23)CC1 [Example 21, (S)-4-amino-N-(3-hydroxy-1-phenylpropyl)-1-(7H-pyrrolo[2,3-d]pyrimidin-4-yl)piperidine-4-carboxamide]"
6.43,,,"NC1(C(=O)N[C@@H](CCO)c2ccc(Cl)cc2)CCN(c2ncnc3[nH]cc(C4CC4)c23)CC1 [Example 27, (S)-4-amino-N-(1-(4-chlorophenyl)-3-hydroxypropyl)-1-(5-cyclopropyl-7H-pyrrolo[2,3-d]pyrimidin-4-yl)piperidine-4-carboxamide]"
6.62,7.85,,"NC1(C(=O)N[C@@H](CCO)c2ccc(Cl)cc2)CCN(c2ncnc3[nH]nc(Br)c23)CC1 [Example 33, 4-amino-1-(3-bromo-1H-pyrazolo[3,4-d]pyrimidin-4-yl)-N-[(1S)-1-(4-chlorophenyl)-3-hydroxypropyl]piperidine-4-carboxamide]"
6.46,8.04,,"NC1(C(=O)N[C@@H](CCO)c2ccc(Cl)cc2)CCN(c2ncnc3[nH]cc(Cl)c23)CC1 [Example 34, 4-amino-N-[(1S)-1-(4-chlorophenyl)-3-hydroxypropyl]-1-(5-chloro-7H-pyrrolo[2,3-d]pyrimidin-4-yl)piperidine-4-carboxamide]"
6.55,8.40,,"C[C@H](NC(=O)C1(N)CCN(c2ncnc3[nH]cc(Br)c23)CC1)c1ccc(Cl)cc1 [Example 35, 4-amino-1-(5-bromo-7H-pyrrolo[2,3-d]pyrimidin-4-yl)-N-[(1S)-1-(4-chlorophenyl)ethyl]piperidine-4-carboxamide]"
6.42,7.85,,"Cc1c[nH]c2ncnc(N3CCC(N)(C(=O)N[C@@H](CCO)c4ccc(Cl)cc4)CC3)c12 [Example 36, 4-amino-N-[(1S)-1-(4-chlorophenyl)-3-hydroxypropyl]-1-(5-methyl-7H-pyrrolo[2,3-d]pyrimidin-4-yl)piperidine-4-carboxamide]"
5.72,7.49,,"NC1(C(=O)N[C@@H](CCO)c2cccc(Cl)c2)CCN(c2ncnc3[nH]ccc23)CC1 [Example 40, 4-amino-N-[(1S)-1-(3-chlorophenyl)-3-hydroxypropyl]-1-(7H-pyrrolo[2,3-d]pyrimidin-4-yl)piperidine-4-carboxamide]"
6.27,7.80,,"C[C@H](NC(=O)C1(N)CCN(c2ncnc3[nH]ccc23)CC1)c1ccc(C(F)(F)F)cc1 [Example 41, 4-amino-1-(7H-pyrrolo[2,3-d]pyrimidin-4-yl)-N-{(1S)-1-[4-(trifluoromethyl)phenyl]ethyl}piperidine-4-carboxamide]"
6.11,6.64,,"N#CC(NC(=O)C1(N)CCN(c2ncnc3[nH]ccc23)CC1)c1ccc(Cl)cc1 (stereo not drawn) [Example 45, 4-amino-N-[(4-chlorophenyl)(cyano)methyl]-1-(7H-pyrrolo[2,3-d]pyrimidin-4-yl)piperidine-4-carboxamide]"
